Bridge positions count the residues as written; N and C are the ends. Square brackets hold non-standard residues; d marks the D form. Peptide text beside a SMILES is read from it. R8 = C=CCCCCCC[C@@](C)(N)C(=O)O; S5 = C=CCCC[C@](C)(N)C(=O)O; Nle = CCCC[C@H](N)C(=O)O
Columns and labels:
native UBA1 = molecular target: T1, native UBA1 (Homo sapiens, UniProt P22314); assay: Streptavidin-biotin pull-down from HeLa cell lysate, western blot for UBA1; type: binding; settings: biotinylated peptide
T1 construct: endogenous in cells; host or cells: HeLa cell lysate
T1 sequence (P22314 1-1058): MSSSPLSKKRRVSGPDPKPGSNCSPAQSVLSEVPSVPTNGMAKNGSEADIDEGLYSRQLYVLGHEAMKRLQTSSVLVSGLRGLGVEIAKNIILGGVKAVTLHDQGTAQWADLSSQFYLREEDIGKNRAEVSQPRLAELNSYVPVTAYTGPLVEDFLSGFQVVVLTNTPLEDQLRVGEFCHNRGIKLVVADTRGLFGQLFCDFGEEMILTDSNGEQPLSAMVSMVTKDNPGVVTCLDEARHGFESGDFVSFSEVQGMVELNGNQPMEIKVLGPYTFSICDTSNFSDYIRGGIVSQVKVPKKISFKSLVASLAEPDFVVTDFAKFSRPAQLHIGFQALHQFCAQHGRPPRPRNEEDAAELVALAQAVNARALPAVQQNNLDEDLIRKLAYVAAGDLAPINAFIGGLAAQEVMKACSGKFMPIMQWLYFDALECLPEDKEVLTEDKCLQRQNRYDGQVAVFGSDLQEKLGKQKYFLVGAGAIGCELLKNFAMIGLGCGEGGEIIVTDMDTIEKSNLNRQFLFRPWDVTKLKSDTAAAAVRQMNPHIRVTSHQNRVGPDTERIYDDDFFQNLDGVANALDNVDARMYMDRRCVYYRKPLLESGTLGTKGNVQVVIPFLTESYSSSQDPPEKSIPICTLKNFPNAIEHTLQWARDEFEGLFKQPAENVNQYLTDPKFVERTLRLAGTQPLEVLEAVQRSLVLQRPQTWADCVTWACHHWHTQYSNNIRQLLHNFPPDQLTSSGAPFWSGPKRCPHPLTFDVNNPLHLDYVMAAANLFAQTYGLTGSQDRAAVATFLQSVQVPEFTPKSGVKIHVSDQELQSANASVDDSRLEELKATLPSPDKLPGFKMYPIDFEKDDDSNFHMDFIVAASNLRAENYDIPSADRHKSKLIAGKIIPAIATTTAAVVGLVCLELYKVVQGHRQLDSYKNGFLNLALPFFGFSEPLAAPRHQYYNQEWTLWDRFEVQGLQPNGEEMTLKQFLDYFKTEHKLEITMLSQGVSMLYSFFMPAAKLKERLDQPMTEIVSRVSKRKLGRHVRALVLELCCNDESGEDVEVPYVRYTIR
Procedure: Streptavidin-biotin pull-down assays: For recombinant protein pull-downs, 10 pmol recombinant human UBA1 was incubated with 5 nmol C-terminally biotinylated SAH-UBE2A or DMSO vehicle control in a total volume of 1 mL binding buffer (50 mM NaCl, 20 mM HEPES, pH 7.4, 5 mM DTT) for 1.5 hours at 4° C. 30 μL of pre-equilibrated streptavidin agarose beads were then added and incubated for an additional 1.5 hours at 4° C. The beads were pelleted by centrifugation and washed three times with NP-40 buffer (20 mM HEPES, pH 7.4, 50 mM NaCl, 5 mM DTT, 0.5% [v/v] NP-40) before eluting the protein sample from the beads by heating at 70° C. for 10 min in 3×SDS loading buffer. Samples were subjected to electrophoresis and silver staining (Pierce 24612). […] Proteins were separated by SDS-PAGE gel electrophoresis and detected by western blot against UBE1 (Abcam ab34711). […] Conjugation of ubiquitin to E2 by E1 is monitored by conversion of free E2 (17 kDa) to E2˜ubiquitin conjugate (26 kDa). Quantitation of percent inhibition was calculated from densitometry of silver stain images. Error bars represent ±1 SEM calculated from three independent experiments.

[1] = tested on: HeLa S100 lysate fraction, polyubiquitin chains; assay: Cellular lysate enzyme inhibition (ubiquitination) assay; type: biochemical; settings: excess ubiquitin, ATP regeneration solution, vs vehicle
Procedure: Cellular Lysate Enzyme Inhibition Assays: Cellular lysate assays were performed with 1 mg/mL final concentration HeLa S100 lysate fraction and the indicated concentration of peptide or DMSO vehicle control in an assay buffer containing 1×ATP regeneration solution, 20 mM HEPES, 50 mM NaCl, 5 mM MgCl2, 2 mM DTT, 100 nM ubiquitin aldehyde, and a protease-phosphatase inhibitor cocktail at pH 7.4. Reactions were initiated by addition of ubiquitin to a final concentration of 100 μM and allowed to proceed for 30 minutes at room temperature, followed by quenching with non-reducing LDS loading buffer. Proteins were separated by SDS-PAGE gel electrophoresis and detected by western blot against polyubiquitin (Cell Signaling Technology CST3936).

Compound: CCCC[C@H](NC(C)=O)C(=O)N[C@@H](CO)C(=O)N[C@H](C(=O)N1CCC[C@H]1C(=O)N[C@]1(C)CCCCCCC=CCCC[C@@](C)(C(=O)N[C@@H](Cc2ccccc2)C(=O)N[C@@H](CCCCN)C(=O)N[C@@H](CCCNC(=N)N)C(=O)N[C@@H](CC(C)C)C(=O)N[C@@H](CCC(N)=O)C(N)=O)NC(=O)[C@H](CCCNC(=N)N)NC(=O)[C@H](CCCC)NC(=O)[C@H](CC(C)C)NC(=O)[C@H](CCCNC(=N)N)NC(=O)[C@H](CCCNC(=N)N)NC(=O)[C@H](CCCNC(=N)N)NC1=O)[C@@H](C)O [SAH-UBE2A-11, BSTPX1RRRLBRX2FKRLQ] (Ac-[Nle]STP[R8]RRRL[Nle]R[S5]FKRLQ-NH2; staple 5-12)
- direct binding to native UBA1 in HeLa cell lysate (native UBA1): direct binding of SAH-UBE2A to native UBA1
- formation of polyubiquitin chains in HeLa cell cytoplasmic fraction [1]: dose-dependently inhibited formation of polyubiquitin chains
